Measurements taken from PMC10537105, “Derivatives Incorporating Acridine, Pyrrole, and Thiazolidine Rings as Promising Antitumor Agents” (Molecules, 2023).

Experiments:
[1] = tested on: MCF-7; test: MTT assay, MCF-7 cells; format: cell-based, human; conditions: Homo sapiens, MCF7, 72 h of incubation, read-out: IC50 values ± SD, MCF-7
Excerpt: (§1) The impact of acridine spiro derivatives 6–10 (Figure 13) on the metabolic activity of various tumor cell lines HCT-116 (human colorectal carcinoma), Jurkat (human leukemia cells), HeLa (human cervical adenocarcinoma), MDA-MB-231, and MCF-7 (human breast adenocarcinoma), and normal cell lines COS-7 (monkey kidney cells) and BJ-5ta (skin fibroblasts) was investigated using the MTT assay. This assay measures the conversion of yellow 3-(4,5-dimethylthiazol-2-yl)-2,5-diphenyltetrazolium bromide (MTT) to insoluble purple formazan by metabolically active cells. The antiproliferative activities of the tested compounds were determined based on the results from the MTT assay, and the inhibitory concentration values (IC50) are presented in Table 5.
(§2) The human cancer cell lines employed in this study were sourced from reputable institutions, including the American Type Culture Collection (ATCC; Manassas, VA, USA) and the European Collection of Authenticated Cell Cultures (ECACC, Salisbury, UK). Specifically, HeLa (93021013, human cervical adenocarcinoma), HCT116 (CCL-247TM, human colorectal carcinoma), and Jurkat (88042803, human leukemic T-cell lymphoma) were cultured in RPMI 1640 medium (Biosera, Kansas City, MO, USA). In contrast, MCF-7 (HTB-22TM, human breast adenocarcinoma, ER+), MDA-MB-231 (HTB-26TM, human breast adenocarcinoma, ER−), and COS-7 (CRL-1651TM, kidney fibroblasts) were nurtured in high-glucose Dulbecco’s Modified Eagle Medium (DMEM) supplemented with sodium pyruvate (Biosera). Furthermore, BJ-5ta (CRL-4001TM, human dermal fibroblasts) was cultured in a composite medium of high-glucose DMEM and M199 (4:1) (Biosera), supplemented with Hygromycin B (0.01 mg/mL; Merck, Darmstadt, Germany). All culture media were enriched with a 10% fetal bovine serum (FBS; Gibco, Thermo Scientific, Rockford, IL, USA) and an antibiotic/antimycotic solution (Merck) to ensure optimal growth conditions. The cells were meticulously maintained within a humidified environment containing 5% CO2 at 37 °C. Regular screenings for mycoplasma contamination were conducted using Hoechst 33342 staining (Merck), confirming the integrity of the cell lines.
(§3) To assess the antiproliferative impact of the synthesized compounds 6–10, their half-maximal inhibitory concentration (IC50) and the MTT colorimetric assay were employed. MDA-MB-231 and MCF-7 cells were seeded into 96-well microplates (SARSTEDT, Nümbrecht, Germany) at a density of 5 × 10^3 cells per well. After 24 h of cell seeding, various concentrations (100, 50, and 10 µmol/L) of acridine derivatives 6–10 were introduced, alongside cisplatin (utilized as a reference) at concentrations of 5, 10, 20, 50, and 100 µmol/L. Subsequent to 24, 48, and 72 h of treatment, the cells in each well underwent incubation with MTT (5 mg/mL, Sigma-Aldrich Chemie, Steinheim, Germany) for 4 h at 37 °C in the dark. During this period, mitochondrial oxidoreductases metabolized MTT, forming insoluble formazan. Following this, 100 µL of SDS (10% […]) was added to dissolve the formazan crystals, and the cells were incubated for an additional 12 h. Absorbance at 540 nm was measured using the automated Cytation™ 3 Cell Imaging Multi-Mode Reader (Biotek, Winooski, VT, USA). Each test was performed in triplicate, and three independent experiments were conducted to ensure precision and reliability.

[2] = tested on: MDA-MB-231; test: MTT assay, MDA-MB-231 cells; format: cell-based, human; conditions: Homo sapiens, MDA-MB-231, 72 h of incubation, read-out: IC50 values ± SD, MDA-MB-231
Excerpt: as §1, §2, §3

[3] = tested on: HeLa; test: MTT assay, HeLa cells; format: cell-based, human; conditions: Homo sapiens, HeLa, 72 h of incubation, read-out: IC50 values ± SD, HeLa
Excerpt: as §1, §2, §3

[4] = tested on: HCT-116; test: MTT assay, HCT-116 cells; format: cell-based, human; conditions: for IC50: Homo sapiens, HCT-116, MTT, 72 h of incubation, read-out: IC50 values ± SD, HCT-116
Excerpt: as §1, §2, §3

[5] = tested on: Jurkat; test: MTT assay, Jurkat cells; format: cell-based, human; conditions: for IC50: Homo sapiens, Jurkat, MTT, 72 h of incubation, read-out: IC50 values ± SD, Jurkat
Excerpt: as §1, §2, §3

[6] = tested on: COS-7; test: MTT assay, COS-7 normal cells; format: cell-based, monkey; conditions: Primates, COS-7, 72 h of incubation, normal cell line, read-out: IC50 values ± SD, COS-7
Excerpt: as §1, §2, §3

[7] = tested on: BJ-5ta; test: MTT assay, BJ-5ta normal fibroblasts; format: cell-based, human; conditions: Homo sapiens, Fibroblast, 72 h of incubation, normal cell line, read-out: IC50 values ± SD, BJ-5ta
Excerpt: as §1, §2, §3

[8] = tested on: primary brain endothelial cells; test: Endothelial cell viability assay (ATP, CellTiter-Glo); format: cell-based, rats; conditions: primary rat brain endothelial cells
Excerpt: To comprehensively evaluate the cytotoxic effects of the investigated compounds 6c, 6e, and 8a, 8c, we conducted tests on primary endothelial cells. This additional assessment served multiple purposes in our study. Firstly, it aimed to assess the selectivity of these compounds, particularly in comparison to their effects on both tumor and normal cell lines. […] Secondly, by examining their impact on endothelial cells, we aimed to explore potential off-target effects, as endothelial cells are crucial components of blood vessels and play a pivotal role in angiogenesis—a process intricately linked to tumor growth. Lastly, these tests allowed for a broader safety assessment, beyond the scope of tumor and normal cell lines, providing insights into the compounds’ implications for vascular health and their regulatory role in angiogenesis.
Primary brain endothelial cells were isolated from rats (200–250 g, […]; n = 5 per isolation). Euthanasia was performed by CO2 exposure, followed by brain removal. The brainstem and cerebellum were dissected, and the white matter from the midbrain and choroid plexus was excised under sterile conditions. Cortical tissues were meticulously cleaned of meninges and homogenized on ice in a DMEM-F12 medium (PAA Laboratories GmbH, Cölbe, Germany) with 0.1% bovine serum albumin (BSA, Sigma-Aldrich, St. Louis, MO, USA). The homogenate was centrifuged at 800× g for 10 min at 4 °C. After aspirating the supernatant, the pellet was resuspended in a pre-warmed digestion mix containing 1 mg/mL collagenase/dispase (Roche Diagnostics, Indianapolis, IN, USA) and 10 μg/mL DNase I (Roche Diagnostics, Indianapolis, IN, USA). The homogenates were then incubated with the pre-prepared digestion mix at 37 °C for 30 min with gentle shaking. The preparation was centrifuged at 800× g for 10 min at 4 °C, and the pellets were resuspended in 20% BSA in the medium. The tissues were centrifuged at 1500× g for 15 min at 4 °C to obtain a pellet containing microvessels with a fraction of myelin and BSA on top, which was centrifuged again. The microvessels were pooled and resuspended in a pre-warmed digestion mix and incubated for 15 min at 37 °C. The pellet was then centrifuged at 800× g for 10 min at 4 °C and washed with a serum-containing DMEM-F12 culture medium. […] The endothelial cells were ready to use after 7 days.
The endothelial cell viability was assessed through the quantification of adenosine triphosphate (ATP) released from the cells, utilizing the ATP assay as per the manufacturer’s instructions (The Promega CellTiter-Glo™ Luminescent Cell Viability Assay Kit, Madison, WI, USA). […]

| Compound | IC50 [1] | IC50 [2] | IC50 [3] | IC50 [4] | selectivity index, HCT-116 compared to non-tumor cells COS-7 and BJ-5ta ([4]; ratio of IC50 values) | IC50 [5] | selectivity index, Jurkat compared to non-tumor cells COS-7 and BJ-5ta ([5]; ratio of IC50 values) | IC50 [6] | IC50 [7] | IC50 [8] | melting point |
| --- | --- | --- | --- | --- | --- | --- | --- | --- | --- | --- | --- |
| COc1cccc(NC(=S)NN2C(=O)C(C#N)=CC23c2ccccc2Nc2ccccc23)c1 [6c, 3-{4′-Cyano-5′-oxo-1′,5′-dihydro-10H-spiro[acridine-9,2′-pyrrol]-1′-yl}-1-(3-methoxyphenyl)thiourea] | 34.2 ± 5.01 µM | 47.2 ± 1.17 µM | 41.1 ± 1.91 µM | 7 ± 0.22 µM | exceeding 10 | 6.47 ± 0.27 µM | exceeding 10 | 83.4 ± 4.79 µM | 73.2 ± 2.41 µM | 39 µM | 184 to 186 °C (dec.) |
| N#CC1=CC2(c3ccccc3Nc3ccccc32)N(NC(=S)Nc2ccc([N+](=O)[O-])cc2)C1=O [6e, 3-{4′-Cyano-5′-oxo-1′,5′-dihydro-10H-spiro[acridine-9,2′-pyrrol]-1′-yl}-1-(4-nitrophenyl)thiourea] | 39.7 ± 0.58 µM | 78.8 ± 4.87 µM | 52.1 ± 2.99 µM | 19.6 ± 1.07 µM | – | 7.82 ± 0.31 µM | – | 87.1 ± 5.82 µM | 71.1 ± 2.62 µM | 45 µM | 175 to 179 °C (dec.) |
| CCOC(=O)/C=C1\S/C(=N\N2C(=O)C(C#N)=CC23c2ccccc2Nc2ccccc23)N(c2ccccc2)C1=O [8a, Ethyl 2-[(2Z,5Z)-2-({4′-cyano-5′-oxo-1′,5′-dihydro-10H-spiro[acridine-9,2′-pyrrol]-1′-yl}imino)-4-oxo-3-phenyl-1,3-thiazolidin-5-ylidene]acetate] | 7.9 ± 0.49 µM | 7.85 ± 0.69 µM | 5.77 µM | 5.46 ± 0.04 µM | – | 5.67 ± 0.06 µM | – | 9.15 ± 0.12 µM | 7.25 ± 0.41 µM | 5 µM | 256 to 259 °C (dec.) |
| CCOC(=O)/C=C1\S/C(=N\N2C(=O)C(C#N)=CC23c2ccccc2Nc2ccccc23)N(c2cccc(OC)c2)C1=O [8c, Ethyl 2-[(2Z,5Z)-2-({4′-cyano-5′-oxo-1′,5′-dihydro-10H-spiro[acridine-9,2′-pyrrol]-1′-yl}imino)-3-(3-methoxyphenyl)-4-oxo-1,3-thiazolidin-5-ylidene]acetate] | 7.75 ± 0.41 µM | 7.98 ± 0.93 µM | 5.83 ± 0.03 µM | 5.44 ± 0.05 µM | – | 5.67 ± 0.03 µM | – | 8.95 ± 0.08 µM | 7.18 ± 0.19 µM | 20 µM | 239 to 243 °C (dec.) |
